We go through one compound from patent US10501413B2, “Inhibitors of the Notch transcriptional activation complex and methods for use of the same” (UNIVERSITY OF MIAMI, priority 2015, dated 2019).

Usually IC50 stands for the midpoint of a concentration-inhibition curve. What is called Kd is the concentration at which binding is half-saturated. Higher therefore signals weaker binding.

Data set [1] deals with MAML1 and Notch1 occupancy on HES1 promoter in OE33 and 786-0 cells. Put plainly: Chromatin immunoprecipitation (ChIP) on the HES1 locus. The data set is classed as cell-based, human. To be noted: 24 hours. How it is done:
The effect of inhibitor treatment on the assembly of the NTC in cells was investigated.
Cells (8×10^6 OE33 cells or 10×10^6 786-0 cells) were plated onto a 15 cm tissue culture dish a day prior to treatment. Cells were then treated for 24 hours with (N—[N-(3,5-difluorophenacetyl)-L-alanyl]-S-phenylglycine t-butyl ester (“DAPT”, 5 μM), Inhibitor No. 1-134-83 (25 μM), or DMSO vehicle. Following treatment, cells were cross-linked for 10 minutes with 1% formaldehyde. The reaction was then stopped by adding […] glycine. Cells were collected in SDS lysis buffer (1% SDS, 10 mM EDTA, 50 mM Tris-HCl pH 8.0) and sonicated to yield chromatin fragments of approximately 300 to 800 bp (8 minutes at high level for OE33 cells; 5 minutes at medium level for 786-0 cells in BIORUPTOR UCD-200 sonicator). Lysates were divided into equal parts and immunoprecipitated with either α-Notch1 (A301-894A, Bethyl Laboratories) or α-MAML1 (12166s, Cell Signaling Technology) antibody. Protein:DNA immunoprecipitates were then reverse cross-linked at 65° C. in 200 mM NaCl for 4 hours, followed by incubation with RNase A and proteinase K. DNA was then purified using a PCR purification kit (28104,
Qiagen). Immunoprecipitated DNA was then detected by SYBR green qPCR using HES1 specific oligonucleotide primers (forward: 5′CGTGTCTCCTCCTCCCATT3′; reverse: 5′GGGGGATTCCGCTGTTAT3′).

The target in data set [2] is T1, Notch transcriptional activation complex (CSL, Notch1, MAML1 on DNA) (Homo sapiens, UniProt P46531+Q06330).
T1 construct: the intracellular domain of Notch (“NICD”); made in house; host or cells: SF21 insect cells (baculovirus)
Put plainly: Notch complex assembly assay (ALPHASCREEN). Type of data set: biochemical. An excerpt: An in vitro assay was developed to monitor the assembly of the Notch transcriptional complex (“NTC”) on DNA. The NTC, which includes the Notch, Mastermind (“MAML1”), and CSL proteins, binds to a specific DNA sequence in a CSL-dependent manner. For the assay, baculovirus produced CSL, Notch, and MAML1 were mixed together with a biotinylated DNA oligomer containing the CSL target sequence. Assembly of the NTC on DNA was then monitored with the proximity-based ALPHASCREEN (Perkin Elmer) using streptavidin and protein A beads (FIGS. 1A and 1B). A signal results when MAML1 is recruited to CSL bound DNA.
All recombinant proteins were expressed using baculovirus expression vectors in SF21 cells and purified. Unless otherwise stated, all assays contained 125 fmol of double stranded oligonucleotide, CSL, Notch1 and MAML1 proteins. Reactions were carried out in Tris-buffered saline with 0.1% Tween (“TBS-T”) buffer containing 0.2% bovine serum albumin (“BSA”) and 100 ug/mL salmon sperm DNA. Briefly, the Notch complex was assembled on a biotinylated double stranded (“DS”) oligonucleotide harboring one CSL binding site (5′-[…]-3′). Complex assembly was quantitated using ALPHASCREEN technology (Perkin Elmer). Proteins in the complexes were detected using specific antibodies to either MAML1 (Cell signaling, D3K7B), Notch1 (Abcam, 52627) or CSL (anti-His, Abcam 18184). Streptavidin conjugated acceptor beads (Perkin Elmer, 6760002) were used to bind the DS oligonucleotide, and Protein-A conjugated donor beads (Perkin Elmer, 6760137) were used to detect antibody-coated proteins. For screening compounds, Notch transcriptional activation complex (“NTC”) components were added to wells that already contained the inhibitor to be assayed and allowed to incubate for 30 minutes. The ALPHASCREEN plate (Perkin Elmer, 6008350) was then read on an Envision Plate reader (Perkin Elmer) as specified by the manufacturer.
Determination of Equilibrium Dissociation Constants (KD) and Half Maximal Inhibitory Concentrations (IC50)
In general terms: In Alpha technology, singlet oxygen from a donor bead excites a nearby acceptor bead.

Another data set deals with T2, NICD1 (Homo sapiens, UniProt P46531).
T2 construct: the intracellular domain of Notch (“NICD”)
Put plainly: Surface plasmon resonance binding to immobilized NICD. The settings on record: SPR, equilibrium response fitted to 1:1 binding model. How it is done: The inhibitors described herein were subjected to surface plasmon resonance (“SPR”) to determine their binding constants to the NICD and CSL components of the NTC. In particular, the target protein (NICD1) was immobilized on the dextran surface of the SPR sensor chip. Through a microflow system, a solution with the inhibitor was injected over the immobilized protein layer. The inhibitor bound to the immobilized protein, which led to an increase in SPR signal, indicating association of the ligand to the target protein. After 45 seconds, buffer solution was injected on the microfluidics that dissociated the bound complex between the ligand and the inhibitor. As the inhibitor dissociated from the ligand, a decrease in SPR signal was observed. The equilibrium dissociation constant KD was determined by plotting the equilibrium response (Req) as a function of the concentration of the ligand, and fitting the data to a 1:1 binding model. The results are listed in […].
In general terms: Surface plasmon resonance follows binding to a sensor surface in real time, without labels.

In data set [3] the test system is cancer cell lines (OE33, 786-0 and panel). Put plainly: Colony formation assay. Type of data set: cell-based, human. To be noted: for colony formation: 7 days. How it is done: The effect of inhibitor treatment on Notch-target gene transcription also was investigated (FIGS. 2C and 2D). […] As proof of specificity, transcription of the housekeeping gene, HPRT, was unaltered in treated cells. To test the effects of Notch inhibition on proliferation, a colony formation assay was performed.
To extend the analysis of tumor cell growth inhibition, several commonly used cancer cell lines were selected to test for sensitivity to Inhibitor No. 1-134-83 (FIGS. 3A and 3B). […] In this analysis, sensitivity to DAPT is taken to indicate specific inhibition of Notch activity. […] Cells that are refractory to DAPT were equally resistant to Inhibitor No. 1-134-83.
Cells were plated into a 6 well plate at a density of 2000 cells/cm^2. Inhibitor treatment commenced 24 hours post seeding, and the media containing inhibitor was changed every 48 hours thereafter. After 168 hours, cells were fixed with ice cold methanol for 10 minutes, stained for 1 hour with crystal violet, de-stained with water, and allowed to dry.

T2 sequence (P46531 1754-2555 limits assumed): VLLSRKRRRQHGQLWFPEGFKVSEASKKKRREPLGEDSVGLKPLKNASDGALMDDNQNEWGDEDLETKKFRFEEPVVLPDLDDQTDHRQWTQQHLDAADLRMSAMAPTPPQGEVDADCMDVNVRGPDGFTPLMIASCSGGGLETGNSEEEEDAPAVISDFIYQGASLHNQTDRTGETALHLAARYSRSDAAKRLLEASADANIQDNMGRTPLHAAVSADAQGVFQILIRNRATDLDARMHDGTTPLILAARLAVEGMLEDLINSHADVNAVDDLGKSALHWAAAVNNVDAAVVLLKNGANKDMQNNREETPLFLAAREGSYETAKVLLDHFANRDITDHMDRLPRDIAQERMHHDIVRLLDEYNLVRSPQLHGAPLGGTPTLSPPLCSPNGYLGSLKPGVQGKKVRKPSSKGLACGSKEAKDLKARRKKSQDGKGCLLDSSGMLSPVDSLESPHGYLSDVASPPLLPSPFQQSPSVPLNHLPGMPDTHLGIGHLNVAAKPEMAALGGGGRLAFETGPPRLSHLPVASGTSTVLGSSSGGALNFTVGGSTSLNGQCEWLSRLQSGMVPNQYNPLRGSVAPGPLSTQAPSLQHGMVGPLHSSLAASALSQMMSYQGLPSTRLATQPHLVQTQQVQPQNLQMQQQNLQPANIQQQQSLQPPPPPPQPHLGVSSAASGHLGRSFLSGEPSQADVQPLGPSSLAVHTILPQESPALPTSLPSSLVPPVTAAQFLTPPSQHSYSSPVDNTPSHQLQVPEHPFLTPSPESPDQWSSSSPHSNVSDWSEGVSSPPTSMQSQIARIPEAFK
T1 sequence (P46531 1754-2555 limits assumed): as above
T1 sequence (Q06330 whole entry, the tested form may be a part): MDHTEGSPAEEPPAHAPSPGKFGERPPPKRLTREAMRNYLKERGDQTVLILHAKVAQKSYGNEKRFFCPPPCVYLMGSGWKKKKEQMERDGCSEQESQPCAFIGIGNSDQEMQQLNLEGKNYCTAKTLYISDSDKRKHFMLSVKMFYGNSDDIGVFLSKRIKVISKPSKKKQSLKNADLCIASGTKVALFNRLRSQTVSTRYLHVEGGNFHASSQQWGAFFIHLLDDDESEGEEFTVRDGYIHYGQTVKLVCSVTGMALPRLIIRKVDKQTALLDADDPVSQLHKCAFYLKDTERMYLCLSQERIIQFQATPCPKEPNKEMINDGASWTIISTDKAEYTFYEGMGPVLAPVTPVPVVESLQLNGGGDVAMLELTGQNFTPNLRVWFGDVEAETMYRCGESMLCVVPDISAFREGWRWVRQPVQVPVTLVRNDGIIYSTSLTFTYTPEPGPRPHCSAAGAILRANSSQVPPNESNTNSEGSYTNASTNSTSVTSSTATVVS

As for `CCOC(=O)COc1ccc(/C=C2\SC(=S)NC2=O)cc1OC` [1-134-83], the “occupancy of MAML1 on the HES1 promoter” value in data set [1] is “decreased the occupancy”. Also, the “occupancy of NOTCH1 on the HES1 promoter” value in data set [1] is “did not affect”. The compound further came in with an IC50 in data set [2] of 26 µM. At NICD1, binding was characterised by a dissociation constant (Kd) of 11 ± 3 µM. The colony formation entry in data set [3] (786-0 and OE33 cells) is given as “dose-dependent reduction”; in data set [3] (insensitive cell lines, high doses) it was “do not show changes in colony formation ability”; in data set [3] (sensitive (Notch dependent) cell lines) it was “dose-dependent decrease in colony formation”. Moreover, the effective concentration in data set [3] (cancer cell lines) stood at 5 µM. Further, in data set [3] (cells refractory to DAPT, dose nearly 10× the effective concentration), the cellular toxicity entry was “did not induce any cellular toxicity”.
